According to ChEMBL document CHEMBL3272015, “Cysteine derivatives with reactive groups as potential antitumor agents” (1976):
Activity calls are given as the source filed them. No cut-off for these calls is given here.

What follows are molecules tested on TA3 (assay: Antitumor activity against mouse TA3 cells assessed as growth inhibition).
Format: functional
Molecule `N[C@@H](CSC(c1ccccc1)(c1ccccc1)c1ccccc1)C(=O)O` [S-TRITYL-L-CYSTEINE] has an ID50 of 6.3 ×10⁻⁷ M. `CC(=O)N1[C@@H](c2ccc(C)cc2)SC[C@H]1C(=O)CCl` was tested, and the ID50 was 3.2 ×10⁻⁵ M.

The molecules below were run on TA3 (assay: Induction of growth in mouse TA3 cell at 10^-4 M).
Format: functional, cell-based
For `Cc1ccc([C@@H]2N[C@H](C(=O)O)CS2)cc1`, the Activity was “Active”. `CC(=O)N1[C@@H](c2ccc(C)cc2)SC[C@H]1C(=O)O` was tested, and the Activity was “inactive”. With `Cc1ccc([C@H]2SC[C@@H](C(=O)O)N2C(=O)C(F)(F)F)cc1` the Activity was “inactive”.

What follows are molecules tested on TA3 (assay: Antitumor activity against mouse TA3 cells assessed as growth inhibition at 10^-4 M).
Format: functional, cell-based
With `CC(=O)N1[C@@H](c2ccc(C)cc2)SC[C@H]1C(=O)C=[N+]=[N-]` the “growth inhibition (GI)” value was “inactive”. In the case of `CC(=O)N1[C@@H](c2ccc(C)cc2)SC[C@H]1C(=O)O`, the “growth inhibition (GI)” value is reported as “inactive”. For `Cc1ccc(C2NC(C(=O)O)C(C)(C)S2)cc1` (centres undefined), the “growth inhibition (GI)” value was “inactive”. In the case of `CC(=O)N1C(c2ccc(C)cc2)SC(C)(C)C1C(=O)O` (centres undefined), the “growth inhibition (GI)” value is reported as “inactive”.
